Measured values reported in PMC4343023, “Selectivity of odorant-binding proteins from the southern house mosquito tested against physiologically relevant ligands” (Frontiers in Physiology, 2015).

Columns and labels:
Test in all cases: biochemical
Assay type in all cases: binding
CquiOBP5 = CquiOBP5 (Culex quinquefasciatus, UniProt C7BDZ9); details: CquiOBP5; for IC50: NPN displacement titration, read-out: IC50; for Kd: calculated from IC50 of NPN displacement, read-out: Kd; for Int (fluorescence emission): residual NPN fluorescence, normalized to 100 prior to ligand, screen at 2–20 μM ligand
CquiOBP5, sequence (C7BDZ9 entry or part of it): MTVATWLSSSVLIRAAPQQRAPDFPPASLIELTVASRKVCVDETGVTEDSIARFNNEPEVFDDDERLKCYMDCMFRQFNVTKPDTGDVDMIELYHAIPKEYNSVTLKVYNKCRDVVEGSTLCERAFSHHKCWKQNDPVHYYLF
Procedure: (§1) Binding affinity (Ban et al., [2002]) was tested with a panel of 34 compounds, including attractants, a mosquito oviposition pheromone, repellents, terpenoids and other putative mosquito attractants or repellents. Unless otherwise specified, they were purchased from Sigma-Aldrich/Fluka/Acros (St. Louis, MO). Repellents: DEET (N,N-diethyl-3-methylbenzamide), PMD (p-mentan-3,8-diol) (Bedoukian Research, Inc.), picaridin (butan-2-yl 2-(2-hydroxyethyl)piperidine-1-carboxylate), IR3535 (ethyl 3-[acetyl(butyl)amino]propanoate) (gifts from Dr. Kamal Chauhan, USDA, ARS, Beltsville), (±)-citronellal, and ethyl 2-phenylacetate. Oviposition attractants: (5R,6S)-6-acetoxy-5-hexadecanolide, MOP (Bedoukian Research, Inc.), skatole, indole, 4-methylphenol, and 4-ethylphenol. Human derived compounds: nonanal, 6-methyl-5-hepten-2-one (sulcatone). Terpenoids and other putative attractants/repellents: linalool, linalool oxide, eucalyptol, camphor, fenchone, thujone, geranyl acetate, eugenol, (Z)-3-hexenyl acetate, 1-octen-3-ol, 1-octyn-3-ol, 3-octanol, 1-hexanol, methylcyclohexanol, methyl salicylate, cyclohexanone, acetophenone, benzaldehyde, 3,5-dimethoxybenzene, 1,2-dimethoxybenzene, and 2-phenylethanol.
(§2) Fluorescence spectra were recorded in a right angle configuration on a spectrofluorimeter (RF-5301, Shimadzu, Kyoto, Japan) at room temperature using a 1 cm light path fluorimeter quartz cuvette. Slit widths of 10 nm were selected for both excitation and emission. N-phenyl-1-naphthylamine (NPN, or 1-NPN) (Ban et al., [2002]) was dissolved in methanol to yield a 1 mM stock solution. The binding affinity for NPN was determined by adding aliquots of NPN into a 10 μg/ml (microgram) protein sample. NPN was excited at 337 nm and emission spectra were recorded at high speed scanning between 350 and 500 nm. All ligands used in competition experiments were dissolved in spectrophotometric grade methanol. Binding data were collected in three independent measurements. Bound ligand was evaluated from fluorescence intensity assuming that the protein was 100% active, with a stoichiometry of 1:1 (protein: ligand) at saturation. The KNPN values were estimated using Prism 5 (GraphPad Software, Inc., La Jolla, CA) by non-linear regression for a unique site of binding. The curves were linearized using Scatchard plots. Dissociation constants of the competitors were calculated according to Campanacci et al. ([2001]) from the corresponding IC50 values in the equation: Kdiss = [IC50]/1+[NPN]/KNPN, where [NPN] is the free concentration of NPN and KNPN is the dissociation constant of the complex protein/NPN.

CquiOBP1 = CquiOBP1 (Culex quinquefasciatus, UniProt Q8T6I2); details: CquiOBP1; for IC50: NPN displacement titration, read-out: IC50; for Kd: calculated from IC50 of NPN displacement, read-out: Kd; for Int (fluorescence emission): residual NPN fluorescence, normalized to 100 prior to ligand, screen at 2–20 μM ligand
CquiOBP1, sequence (Q8T6I2 entry or part of it): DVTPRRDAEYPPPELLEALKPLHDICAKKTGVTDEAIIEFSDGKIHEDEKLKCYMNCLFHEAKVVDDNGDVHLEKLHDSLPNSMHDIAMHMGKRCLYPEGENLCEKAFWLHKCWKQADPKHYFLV
Procedure: as §1, §2

CquiOBP2 = CquiOBP2 (Culex quinquefasciatus, UniProt C7BDZ6); details: CquiOBP2; for IC50: NPN displacement titration, read-out: IC50; for Kd: calculated from IC50 of NPN displacement, read-out: Kd; for Int (fluorescence emission): residual NPN fluorescence, normalized to 100 prior to ligand, screen at 2–20 μM ligand
CquiOBP2, sequence (C7BDZ6 entry or part of it): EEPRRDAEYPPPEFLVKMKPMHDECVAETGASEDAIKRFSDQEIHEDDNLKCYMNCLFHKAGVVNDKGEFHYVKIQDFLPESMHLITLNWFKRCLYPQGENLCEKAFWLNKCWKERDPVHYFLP
Procedure: as §1, §2

Structure (SMILES)	IC50 (CquiOBP5) [µM]	Kd (CquiOBP5) [µM]	Int (fluorescence emission) (CquiOBP5)	IC50 (CquiOBP1) [µM]	Kd (CquiOBP1) [µM]	Int (fluorescence emission) (CquiOBP1)	IC50 (CquiOBP2) [µM]	Kd (CquiOBP2) [µM]	Int (fluorescence emission) (CquiOBP2)
C=CCc1ccc(O)c(OC)c1 [Eugenol, eugenol]	10.7	7.4	57.5	> 10	> 6.3	72	> 10	> 2.5	82
CCCCN(CCC(=O)OCC)C(C)=O [IR3535, ethyl 3-[acetyl(butyl)amino]propanoate]	> 10	> 7	67	> 10	> 6.3	71	> 10	> 2.5	90
C=CC(C)(O)CCC=C(C)C (stereo not drawn) [Linalool, linalool]	> 10	> 7	86	> 10	> 6.3	91	> 10	> 2.5	97
CC/C=C\CCOC(C)=O [(Z)-3-Hexenyl acetate, (Z)-3-hexenyl acetate]	> 10	> 7	83	> 10	> 6.3	79	> 10	> 2.5	93
CCc1ccc(O)cc1 [4-Ethylphenol, 4-ethylphenol]	> 10	> 7	84	> 10	> 6.3	85	> 10	> 2.5	91
CC12CCC(CC1=O)C2(C)C (stereo not drawn) [Camphor, camphor]	> 10	> 7	89	> 10	> 6.3	90	> 10	> 2.5	85
CC12CCC(C1)C(C)(C)C2=O (stereo not drawn) [Fenchone, fenchone]	> 10	> 7	92	> 10	> 6.3	89	> 10	> 2.5	87
C#CC(O)CCCCC (stereo not drawn) [1-Octyn-3-ol, 1-octyn-3-ol]	12.8	8.9	62.2	> 10	> 6.3	66	> 10	> 2.5	92
O=C1CCCCC1 [Cyclohexanone, cyclohexanone]	> 10	> 7	82	> 10	> 6.3	79	> 10	> 2.5	86
CCCCCC(O)CC (stereo not drawn) [3-Octanol, 3-octanol]	> 10	> 7	85	> 10	> 6.3	87	> 10	> 2.5	78
COC(=O)c1ccccc1O [Methyl salicylate, methyl salicylate]	> 10	> 7	89	> 10	> 6.3	87	> 10	> 2.5	72
OCCc1ccccc1 [2-Phenylethanol, 2-phenylethanol]	> 10	> 7	95	> 10	> 6.3	91	> 10	> 2.5	92
